According to the METLIN SMRT retention time set (Domingo-Almenara et al. 2019):

Test: gradient 5% acetonitrile 3 min, to 50% in 2 min, to 85% in 15 min, held 3 min, 100 µL/min
Settings: column: Zorbax Extend-C18 2.1 x 50 mm; eluents: water / acetonitrile, 0.1% formic acid
Procedure, shortened: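 Pure standards were analyzed in mixtures of ~100 molecules using HPLC coupled to a quadrupole time-of-flight mass spectrometer, in both positive and negative ionization mode. Separation used a Zorbax Extend-C18 column (2.1 × 50 mm, 1.8 μm) at 100 μL/min, with water and acetonitrile each containing 0.1% formic acid. Dead and dwell volumes were 40 μL and 900 μL, and data were collected over 3 months. Retention time was read from computationally picked adduct peaks, each inspected manually.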

| RP-LC retention time [s] | SMILES |
| --- | --- |
| 1090 | Cc1ccccc1Oc1nccnc1N1CCC(C(=O)NC2CCCCCC2)CC1 |
| 892 | CCNC(=O)N(CC(=O)N1CCc2sccc2C1COc1ccccc1)C(C)CC (stereo not given) |
| 673 | COc1ccc(-c2ccc(CNc3ncn[nH]3)o2)cc1Cl |
| 939 | O=C(CN1c2ccc(F)cc2-c2ccccc2S1(=O)=O)NCc1ccccc1 |
| 710 | Cc1cc(C)n2nc(SCC(=O)N(C)Cc3ccccc3)nc2n1 |
| 678 | Cc1cc(S(=O)(=O)[C@H]2CS(=O)(=O)C[C@@H]2N2CCN(Cc3ccccc3)CC2)ccc1F |
| 953 | COC(=O)c1ccc2c(=O)n(Cc3ccccc3)c(N3CCOCC3)nc2c1 |
| 563 | Cc1ccc(NC(=O)N2CCN(c3cnn4c(C)nnc4c3)CC2)cc1 |
| 747 | CCOc1cccc2cc(C(=O)Nc3ccc(S(N)(=O)=O)cc3)oc12 |
| 1360 | CCOc1cc(C(=O)Nc2nc(-c3ccc(OC)cc3)c(C)s2)cc(OCC)c1OCC |
| 842 | Cc1ccc2c(c1)NC(=O)c1cc(NC(=O)Cc3ccc(F)cc3)ccc1O2 |
| 760 | Cc1cc(N2CCN(C(=O)Nc3cccc(C(F)(F)F)c3)CC2)nc(N2CCCC2)n1 |
| 1100 | Cc1ccc(-c2nnc(Cc3nc(-c4ccccc4F)no3)o2)cc1F |
| 736 | CCn1ccc2c(cc(C(=O)Nc3cccc(C)c3C)n2C)c1=O |
| 856 | Cc1ccc(-c2cc(C(=O)O)c3c(-c4ccc(C)cc4)[nH]nc3n2)cc1 |
| 811 | COc1ccc(N2CCN(C(=O)C3c4ccccc4CCN3C(=O)C3CC3)CC2)cc1 (stereo not given) |
| 941 | CCOC(=O)c1nc(N(CC)c2ccc(OC)cc2)c2ccccc2n1 |
| 765 | O=S(=O)(Nc1cccc(Cl)c1)c1c[nH]c2ncccc12 |
| 778 | Cc1ccc(Nc2nc3ccncc3n(Cc3ccccc3)c2=O)cc1 |
| 733 | O=C(NC1CCCCC1)N1CCC(c2nc(C3CCOCC3)no2)CC1 |
| 964 | CCN1C(=O)c2cccnc2Sc2cc(NC(=O)c3ccc(F)c(Cl)c3)ccc21 |
| 593 | CN(C)C(=O)c1ccc2c(c1)N(CC(=O)NCCCN1CCOCC1)C(=O)C1CCCCN21 (stereo not given) |

| RP-LC retention time [s] | SMILES |
| --- | --- |
| 914 | O=C(CN1C(=O)C2CCCCN2c2ccc(C(=O)N3CCCC3)cc21)NCCC1=CCCCC1 (stereo not given) |
| 581 | CSc1cccc(Nc2c(C(=O)N3CCSCC3)cnc3nc(C)ccc23)c1 |
| 1090 | CCn1cc(-c2nc(C)c(C(=O)NCc3ccccc3F)s2)c2cccnc21 |
| 803 | Cc1c(C)n(-c2ccc(Cl)cc2)c2ncn(CC(=O)N3CCCC3)c(=O)c12 |
| 906 | Cc1cc(C)cc(Oc2nccn3c(=O)n(CC(=O)Nc4c(C)cccc4C)nc23)c1 |
| 615 | Cc1ccc(CNS(=O)(=O)c2cc3n(c2)CCCNC3=O)o1 |
| 786 | CCOC(=O)c1ccc(CN2C(=O)CSC2=O)cc1 |
| 936 | O=C(CN1CCc2ccccc2C1C(=O)N1CCCCC1)NCc1ccc(F)c(Cl)c1 (stereo not given) |
| 753 | O=C(C(=O)N1CCN(c2ccc(F)cc2)CC1)c1ccc[nH]1 |
| 1320 | CCOc1ccccc1NC(=O)c1c(O)c2cccnc2n(-c2cccc(F)c2)c1=O |
| 580 | CCCNC(=O)N1CCCCCC1CN1CCOCC1 (stereo not given) |
| 801 | Cn1cc(S(=O)(=O)N2CCOCC2)cc1C(=O)Nc1ccccc1 |
| 770 | Cc1ccc2ncn(C3CCN(C(=O)Nc4ccc(F)cc4F)CC3)c(=O)c2c1 |
| 607 | CCOC(=O)CCNC(=O)N1CCC(OC2CCN(Cc3ccccc3)CC2)CC1 |
| 995 | N#Cc1ccc(NC(=O)c2noc3c2CCCCC3)cc1 |
| 971 | Cc1nc(-c2csc(S(=O)(=O)N3CCC(C(=O)NCCC4=CCCCC4)CC3)c2)no1 |
| 634 | N#Cc1ccc(S(=O)(=O)N2CCC(Cc3nc(-c4cccnc4)n[nH]3)C2)cc1 (stereo not given) |
| 1030 | Cc1cccc2c(=O)n(C3CCN(S(=O)(=O)c4ccc(Cl)cc4)CC3)cnc12 |
| 1140 | CC1CCCN(S(=O)(=O)c2cc(C(=O)NCCC3=CCCCC3)n(C)c2)C1 (stereo not given) |
| 777 | O=C(NCc1nc(-c2ccc(N3CCCCC3)cc2)no1)c1ccco1 |
| 866 | CCc1nc2c(NC(=O)c3ccccc3C(F)(F)F)cccn2n1 |
| 598 | Cc1ccc(NC(=O)N2CCc3nc(CNC(=O)C4CCC4)n(C)c3C2)cc1 |

| RP-LC retention time [s] | SMILES |
| --- | --- |
| 714 | CC(C)c1ccc(NC(=O)C2CCN(c3cncnc3N3CCOCC3)CC2)cc1 |
| 790 | COc1cc(-c2cccc(Cl)c2)nc2ccc(NC(=O)c3ccco3)cc12 |
| 930 | CSc1ccc(-c2nc3cnccn3c2Nc2ccccc2)cc1 |
| 1150 | COc1ccc(-c2ncc3c(n2)CCN(S(=O)(=O)c2cc(C)ccc2C)C3)cc1 |
| 718 | O=C(CCc1csc(NC(=O)NC2CCCCC2)n1)NCc1ccc2c(c1)OCO2 |
| 902 | COCc1noc(C2CCCCN2C(=O)CCc2ccccc2OC)n1 (stereo not given) |
| 887 | CC(C)CC(=O)N1CCCC1c1nc2ccccc2s1 (stereo not given) |
| 1230 | CCCN1C(=O)COc2cc(-c3noc(C(=O)N4CCN(c5cccc(Cl)c5)CC4)n3)ccc21 |
| 842 | COC(=O)c1ccc(C(=O)NCC(O)(c2ccccc2)C(F)(F)F)cc1 (stereo not given) |
| 890 | CCc1ccc(NC(=O)N2CCC(n3cnc4c(Cl)cccc4c3=O)CC2)cc1 |
| 792 | C=CCSc1n[nH]c(-c2cccs2)n1 |
| 733 | CCOC(=O)C1CCN(c2cc3c(cc2NC(=O)C(C)C)n(C)c(=O)c(=O)n3C)CC1 |
| 614 | CC1CCN(c2ncc3c(n2)CCC(C(=O)NC(C)c2ccccn2)C3)CC1 (stereo not given) |
| 1130 | COc1ccc(NC(=O)c2cc(C(C)C)n3nccc3n2)cc1Cl |
| 797 | Cn1c(=O)c2cc(C(=O)Nc3ccc(F)cc3Cl)sc2n(C)c1=O |
| 1230 | CCCCn1c(=O)c2ccccc2n(Cc2nc(-c3cccc(C)c3)no2)c1=O |
| 661 | COCc1nc(-c2ccc(OC3CN(Cc4cccs4)C3)cc2)no1 |
| 684 | Cc1cc(NC(=O)CN2C(=O)CCc3cc(Br)ccc32)c2ccccc2n1 |
| 935 | CCCn1cc(CCNS(=O)(=O)c2ccc(CC)cc2)c2cccnc21 |
| 743 | CCC(=O)NCCc1c[nH]c2ccc(Cl)cc12 |
| 845 | CC(C)NC(=O)c1ccc(OCC2CCN(C(=O)Cc3cccc(F)c3)CC2)cc1 |
| 576 | CN1CCN(C(=O)c2cc3n(n2)CC(C)(C(=O)NCc2ccc(F)cc2)N(C)C3=O)CC1 (stereo not given) |

| RP-LC retention time [s] | SMILES |
| --- | --- |
| 566 | CCOC(=O)NCC1CCN(Cc2ccccc2SC)CC1 |
| 602 | Clc1ccccc1-c1nnc(CN2CCN(c3ccccn3)CC2)o1 |
| 774 | CCCCNC(=O)c1ccc2c(c1)CCCN2S(C)(=O)=O |
| 652 | COC(=O)c1ccc(NC(=O)N2CCC(n3cnc4cccnc43)CC2)cc1 |
| 866 | COc1ccc(C(=O)N2CCCC2c2nc(-c3ccc(OC)c(OC)c3)no2)c(OC)c1 (stereo not given) |
| 1330 | COc1ccc(-c2nc3n(n2)C2(CCCCC2)[C@@H]2CCCC[C@@H]2N3C(C)=O)cc1 |
| 774 | CCOCCn1c(=O)c2c(nc3n2CCN3c2cc(Cl)ccc2OC)n(C)c1=O |
| 834 | COc1ccc(N2C(=O)C3N=NN(Cc4nc(-c5ccc6c(c5)OCO6)no4)C3C2=O)cc1OC (stereo not given) |
| 758 | Cc1cc2n(n1)CCCN2C(=O)CCC(=O)N1CCN(c2ccc(Cl)cc2)CC1 |
| 694 | O=C(NCCCN1CCCC1)c1cccc(N2CCNC(c3ccccc3)C2)n1 (stereo not given) |
| 884 | O=C(CSc1ccncc1)Nc1ccc(OCc2nnc(-c3ccccc3)o2)cc1 |
| 725 | CCN1CCCC1CNC(=O)c1nnc(-c2oc3c(C)cccc3c2C)o1 (stereo not given) |
| 765 | CC(C)(C)NC(=O)N1C[C@@H]2CN(S(=O)(=O)c3cccc(F)c3)C[C@H](C1)O2 |
| 742 | CSc1cccc(NC(=O)CC2COc3ccccc3NC2=O)c1 (stereo not given) |
| 1100 | CCOc1cccc(C2c3[nH]c4ccccc4c3CCN2C(=O)C2CC2)c1 (stereo not given) |
| 1140 | Cc1ccc(C)c(-c2csc(NC(=O)c3ccc4c(c3)OCO4)n2)c1 |
| 1070 | CCCn1ccc2oc(C)c(C(=O)NC(C)c3ccc(OCC)cc3)c2c1=O (stereo not given) |
| 625 | Cc1ccc(CNC(=O)CCc2ccc3nc(-c4ccccc4)[nH]c3c2)o1 |
| 1260 | COc1ccc2c(c1)C(C(=O)N(Cc1ccc(N(C)C)cc1)c1ccc(C(C)C)cc1)CCC2 (stereo not given) |
| 805 | COc1ccc(-c2ccnc3nc(C4CC4)nn23)cc1 |
| 1060 | Cc1sc(NC(=O)Cn2c(=O)oc3ccccc32)nc1-c1ccc(Cl)cc1 |
| 799 | N#Cc1ccc(N2C=C(C(=O)N3CCCC3)S(=O)(=O)c3ccc(Cl)cc32)cc1 |

| SMILES | RP-LC retention time [s] |
| --- | --- |
| CCNC(=O)N1[C@H]2CC[C@@H]1c1cnc(-c3ccc(F)cc3)nc1C2 | 768 |
| COc1ccc2c(c1)C1(CCN(S(=O)(=O)c3cccs3)C1)C(=O)N2C (stereo not given) | 871 |
